From ChEMBL document CHEMBL3286168, “Synthesis of 2'-O,4'-C-alkylene-bridged ribonucleosides and their evaluation as inhibitors of HCV NS5B polymerase” (Bioorg Med Chem Lett, 2014) come the findings set out here.

Molecules are shown by their SMILES.

Series [1] addresses RNA-directed RNA polymerase (Hepacivirus hominis, UniProt O39930, S282T). The series can be described thus: Inhibition of purified Hepatitis C virus NS5B polymerase S282T mutant. Set-up: species or system Hepatitis C virus subtype 1b.
Series [2] in a line: Inhibition of purified wild type Hepatitis C virus 1b NS5B polymerase. Set-up: species or system Hepatitis C virus subtype 1b.
A short description of series [3]: Cytotoxicity against human HuH7 cells up to 100 uM after 3 hrs by CellTiter-Blue cell viability assay. It is filed as cell-based. As to conditions: huh-7, 3 h. On the technique in general: Resazurin is reduced to fluorescent resorufin, in cell work by metabolically active cells.
A further series relates to Hepatitis C virus. The series can be described thus: Antiviral activity against wild type Hepatitis C virus genotype 1b infected in human HuH7 cells after 72 hrs by luciferase reporter gene assay. It is filed as functional, cell-based, Hepacivirus hominis. The settings on record: Huh-7, 72 h. On the technique in general: A reporter such as luciferase makes a cellular process visible.

The nature of series [4]: Inhibition of purified wild type Hepatitis C virus 2a NS5B polymerase. Further details: species or system Hepatitis C virus subtype 2a.
Series [5] in a line: Inhibition of purified wild type Hepatitis C virus 3a NS5B polymerase. Set-up: species or system Hepatitis C virus subtype 3a.
Series [6] can be described thus: Inhibition of purified wild type Hepatitis C virus 1a NS5B polymerase. Set-up: species or system Hepatitis C virus subtype 1a.
Series [7] in a line: Inhibition of purified wild type Hepatitis C virus 4a NS5B polymerase. Set-up: species or system Hepatitis C virus subtype 4a.
In series [8] the test system is Hepatitis C virus subtype 1b. The series can be described thus: Selectivity ratio of IC50 for Hepatitis C virus NS5B polymerase S282T mutant to wild type Hepatitis C virus 1b NS5B polymerase.

RNA-directed RNA polymerase, sequence (O39930 entry or part of it S282T): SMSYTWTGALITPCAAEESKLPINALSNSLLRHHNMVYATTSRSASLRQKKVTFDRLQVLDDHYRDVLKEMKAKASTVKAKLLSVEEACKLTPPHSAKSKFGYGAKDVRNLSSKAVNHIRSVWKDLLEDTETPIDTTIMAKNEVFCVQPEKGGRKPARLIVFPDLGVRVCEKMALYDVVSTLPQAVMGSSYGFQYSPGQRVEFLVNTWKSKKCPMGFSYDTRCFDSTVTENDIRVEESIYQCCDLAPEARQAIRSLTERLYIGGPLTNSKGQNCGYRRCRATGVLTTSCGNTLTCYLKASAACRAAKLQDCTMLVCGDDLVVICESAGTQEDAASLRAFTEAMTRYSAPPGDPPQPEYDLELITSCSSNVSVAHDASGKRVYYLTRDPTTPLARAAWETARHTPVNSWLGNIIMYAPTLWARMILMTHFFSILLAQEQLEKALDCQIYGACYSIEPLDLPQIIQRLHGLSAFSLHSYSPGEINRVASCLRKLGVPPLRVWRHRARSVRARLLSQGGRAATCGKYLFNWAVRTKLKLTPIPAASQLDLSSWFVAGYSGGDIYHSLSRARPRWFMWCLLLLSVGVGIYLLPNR

Take `Nc1ncnc2c1ncn2[C@@H]1O[C@@]2(COP(=O)(O)OP(=O)(O)OP(=O)(O)O)CO[C@@H]1[C@@H]2O`: the IC50 in [1] is 86.3 µM; in series [2], 39.8 µM.
With `C[C@]12OC[C@](CO)(O[C@H]1n1cnc3c(=O)[nH]c(N)nc31)[C@H]2O`, the Activity result in series [3] is “Non-toxic”. The molecule further returned a 50% effective concentration (EC50) in the series on Hepatitis C virus of more than 50 µM.
In the case of `Nc1nc2c(ncn2[C@@H]2O[C@@]3(CO)CCO[C@@H]2[C@@H]3O)c(=O)[nH]1`, in series [3], the Activity result was “Non-toxic”. In the series with Hepatitis C virus, this molecule showed an EC50 of more than 50 µM.
For the molecule `Nc1ccn([C@@H]2O[C@@]3(COP(=O)(O)OP(=O)(O)OP(=O)(O)O)CO[C@@H]2[C@@H]3O)c(=O)n1`, the half-maximal inhibitory concentration (IC50) in series [1] is 1.44 µM; in [2], 1.39 µM.
As to `Nc1ncnc2c1ncn2[C@@H]1O[C@@]2(CO)CO[C@@H]1[C@@H]2O`, the Activity entry in series [3] is reported as “Non-toxic”. In the series on Hepatitis C virus, this molecule registered an EC50 of more than 50 µM.
As to `Nc1nc2c(ncn2[C@@H]2O[C@@]3(CO)CO[C@@H]2[C@@H]3O)c(=O)[nH]1`, the Activity entry in series [3] was “Non-toxic”. Moreover, the 50% effective concentration (EC50) in the series with Hepatitis C virus was more than 50 µM.
For `CC(OP(=O)(O)OP(=O)(O)OP(=O)(O)O)[C@@]12CO[C@@H]([C@H](n3cnc4c(=O)[nH]c(N)nc43)O1)[C@@H]2O` (stereo in doubt; form 1), the results for the IC50 in [1] and in [2] were 25.1 µM and 15.9 µM, respectively.
Consider `Nc1nc2c(ncn2[C@@H]2O[C@@]3(COP(=O)(O)OP(=O)(O)OP(=O)(O)O)CO[C@@H]2[C@@H]3O)c(=O)[nH]1`, for which the IC50 in series [4] turned out to be 0.29 µM; in series [5], 0.2 µM; in [1] it was 0.38 µM; in series [2], 0.39 µM; in series [6] it was 0.37 µM; in [7] it was 0.31 µM.
For `O=c1ccn([C@@H]2O[C@@]3(COP(=O)(O)OP(=O)(O)OP(=O)(O)O)CO[C@@H]2[C@@H]3O)c(=O)[nH]1`, the results for the IC50 in [1] and in [2] were 12.8 µM and 3.84 µM, respectively.
For the molecule `C[C@]12OC[C@](COP(=O)(O)OP(=O)(O)OP(=O)(O)O)(O[C@H]1n1cnc3c(=O)[nH]c(N)nc31)[C@H]2O`, the 50% inhibitory concentration (IC50) in series [1] was determined as 0.48 µM; in [2], 0.2 µM. Further, the Ratio IC50 in series [8] is 2.
On to `Nc1nc2c(ncn2[C@@H]2O[C@@]3(COP(=O)(O)OP(=O)(O)OP(=O)(O)O)CCO[C@@H]2[C@@H]3O)c(=O)[nH]1`, for which the IC50 in series [1] and in series [2] was more than 100 µM each time.
For `CC(O)[C@@]12CO[C@@H]([C@H](n3cnc4c(=O)[nH]c(N)nc43)O1)[C@@H]2O` (mixture of isomers), the Activity result in [3] is listed as “Non-toxic”. Further, the concentration giving a half-maximal response (EC50) in the series with Hepatitis C virus is more than 50 µM.
Regarding `CC(OP(=O)(O)OP(=O)(O)OP(=O)(O)O)[C@@]12CO[C@@H]([C@H](n3cnc4c(=O)[nH]c(N)nc43)O1)[C@@H]2O` (stereo in doubt; form 2), the IC50 in series [1] and in [2] was more than 100 µM in each case.
Consider `O=c1ccn([C@@H]2O[C@@]3(CO)CO[C@@H]2[C@@H]3O)c(=O)[nH]1`, for which the Activity result in [3] is “Non-toxic”. In addition, the EC50 in the series with Hepatitis C virus is more than 50 µM.
The corresponding values for `Nc1ccn([C@@H]2O[C@@]3(CO)CO[C@@H]2[C@@H]3O)c(=O)n1` are “Non-toxic” and more than 50 µM.

In general, IC50 refers to the midpoint of a concentration-inhibition curve. A high value points to weaker potency in that assay. By EC50 is commonly meant the concentration at which the effect is half-maximal. High values mean weaker potency, low ones greater potency.
